For test [1], the system named is Porphyromonas gingivalis. As to the kind of experiment: Inhibition of Porphyromonas gingivalis recombinant SerB653 phosphatase expressed in Escherichia coli BL21 using phosphoserine as substrate at 50 uM after 1 hr by malachite green colorimetric assay.
Test [2] can be described thus: Inhibition of Porphyromonas gingivalis recombinant SerB653 phosphatase expressed in Escherichia coli BL21 using phosphoserine as substrate after 1 hr by malachite green colorimetric assay.

Here are results for 30 compounds from ChEMBL document CHEMBL2010789, “Identification of 3-acyl-2-phenylamino-1,4-dihydroquinolin-4-one derivatives as inhibitors of the phosphatase SerB653 in Porphyromonas gingivalis, implicated in periodontitis” (Bioorg Med Chem Lett, 2012).

What is called inhibition is the percentage by which the read-out fell short of the control. One may read the IC50 as the concentration at which inhibition is half-maximal.

`CC(C)C(=O)c1c(Nc2ccc(Cl)cc2F)[nH]c2c(Cl)ccc([N+](=O)[O-])c2c1=O`: the inhibition in test [1] was 94.3%. For the same compound, the IC50 in test [2] amounted to 16.5 µM.

Take `CCC(=O)c1c(Nc2cc(F)cc(F)c2)[nH]c2c(Cl)ccc([N+](=O)[O-])c2c1=O`: the inhibition in test [1] turned out to be 92.7%. Moreover, the IC50 in test [2] came out at 19.4 µM.

In the case of `CCC(=O)c1c(Nc2ccc(Cl)cc2F)[nH]c2c(Cl)ccc([N+](=O)[O-])c2c1=O`, in test [1], the inhibition was 94.9%. In test [2], the IC50 is 19.8 µM.

Consider `CC(=O)c1c(Nc2cc(Cl)cc(Cl)c2)[nH]c2c(C)ccc(Cl)c2c1=O`, for which, in test [1], the inhibition was 8.6%.

`O=C(c1c(Nc2ccc(Cl)cc2Cl)[nH]c2c(Cl)ccc([N+](=O)[O-])c2c1=O)C1CC1`: the inhibition in test [1] was 98.1%. Besides, in test [2], the IC50 was determined as 17.6 µM.

On to `CC(=O)c1c(Nc2cc(F)ccc2F)[nH]c2c(F)ccc(F)c2c1=O`, for which, in test [1], the inhibition worked out at 7.9%.

Take `CC(C)CC(=O)c1c(Nc2ccc(Cl)cc2F)[nH]c2c(Cl)ccc([N+](=O)[O-])c2c1=O`: the inhibition in test [1] worked out at 97.3%. In test [2], the IC50 turned out to be 19.3 µM.

`CC(=O)c1c(Nc2cc(C(F)(F)F)cc(C(F)(F)F)c2)[nH]c2c(F)ccc(F)c2c1=O`: in test [1], the inhibition was determined as 95%. In addition, in test [2], the IC50 came to 19.4 µM.

As for `CC(=O)c1c(Nc2ccc(Cl)cc2Cl)[nH]c2c(C(F)(F)F)cccc2c1=O`, in test [1], the inhibition came to 96.3%. Besides, the IC50 in test [2] was 18.6 µM.

As to `CC(C)C(=O)c1c(Nc2ccc(F)cc2F)[nH]c2c(Cl)ccc([N+](=O)[O-])c2c1=O`, the inhibition in test [1] was found to be 80.1%. In test [2], the IC50 came to 12.3 µM.

As for `CC(C)C(=O)c1c(Nc2cccc(Cl)c2Cl)[nH]c2c(Cl)ccc([N+](=O)[O-])c2c1=O`, the inhibition in test [1] was determined as 96.3%. In addition, in test [2], the IC50 turned out to be 19.1 µM.

For `CC(=O)c1c(Nc2cc(C(F)(F)F)cc(C(F)(F)F)c2)[nH]c2c(Cl)ccc(F)c2c1=O`, the inhibition in test [1] amounted to 98.5%. For the same compound, the IC50 in test [2] worked out at 19.3 µM.

As to `CC(C)CC(=O)c1c(Nc2cc(Cl)ccc2Cl)[nH]c2c(Cl)ccc([N+](=O)[O-])c2c1=O`, in test [1], the inhibition was found to be 98.8%. In test [2], the IC50 amounted to 18.8 µM.

With `CC(=O)c1c(Nc2ccc(F)c(F)c2F)[nH]c2c(Cl)ccc(C)c2c1=O`, in test [1], the inhibition was 32.4%.

On to `CC(=O)c1c(Nc2ccc(Br)cc2)[nH]c2c(F)ccc(F)c2c1=O`, for which the inhibition in test [1] amounted to 1.4%.

As for `CC(=O)c1c(Nc2cc(F)cc(F)c2)[nH]c2c(F)ccc(F)c2c1=O`, the inhibition in test [1] is 5.9%.

In the case of `COc1ccc(Nc2[nH]c3c([N+](=O)[O-])cc(Cl)cc3c(=O)c2C(C)=O)cc1`, the inhibition in test [1] turned out to be 6.2%.

For the compound `CC(=O)c1c(Nc2ccc(F)cc2F)[nH]c2c(F)ccc(F)c2c1=O`, the inhibition in test [1] worked out at 0%.

With `CC(=O)c1c(Nc2ccc(Cl)cc2F)[nH]c2c(Cl)ccc(C)c2c1=O`, in test [1], the inhibition came to 24.5%.

As to `CC(=O)c1c(Nc2ccc(F)cc2F)[nH]c2c(Cl)ccc(F)c2c1=O`, in test [1], the inhibition came to 9.1%.

With `CC(=O)c1c(Nc2ccccc2)[nH]c2c(Cl)c(Cl)ccc2c1=O`, the inhibition in test [1] was 4.8%.

Turning to `CC(=O)c1c(Nc2cccc(F)c2C)[nH]c2c(F)ccc(F)c2c1=O`, the inhibition in test [1] is 0%.

Regarding `CC(=O)c1c(Nc2ccc(F)cc2)[nH]c2c([N+](=O)[O-])cc(Cl)cc2c1=O`, in test [1], the inhibition came out at 9.3%.

Regarding `CC(=O)c1c(Nc2cccc(C)c2)[nH]c2c(Cl)c(Cl)ccc2c1=O`, the inhibition in test [1] was found to be 1.6%.

Take `CC(=O)c1c(Nc2ccc(C)cc2)[nH]c2c([N+](=O)[O-])cc(Cl)cc2c1=O`: the inhibition in test [1] stood at 2.2%.

With `CC(=O)c1c(Nc2ccc(F)cc2F)[nH]c2c(C)ccc(Cl)c2c1=O`, the inhibition in test [1] was determined as 2.3%.

With `CC(=O)c1c(Nc2ccc(C(C)(C)C)cc2)[nH]c2c([N+](=O)[O-])cc(Cl)cc2c1=O`, the inhibition in test [1] turned out to be 0%.

`COc1cccc(Nc2[nH]c3c(Cl)c(Cl)ccc3c(=O)c2C(C)=O)c1`: in test [1], the inhibition turned out to be 3.6%.

Consider `CC(=O)c1c(Nc2ccccc2)[nH]c2c([N+](=O)[O-])cc(Cl)cc2c1=O`, for which the inhibition in test [1] was found to be 3.1%.

With `COc1cccc(Nc2[nH]c3c([N+](=O)[O-])cc(Cl)cc3c(=O)c2C(C)=O)c1`, in test [1], the inhibition stood at 0%.
